Key:
[1] = test system: nitrification in soil Limburgerhof; experiment: Inhibition of nitrification in soil, Experiment 2 (incubation 42 days)
Protocol: (§1) The mixtures of the invention were tested as follows in terms of the inhibition of nitrification:
(§2) 100 g soil (soil Limburgerhof with pH(CaCl2) 6.8; 73% sand, 23% silt, 4% clay, which is classified according to FAO as a sandy loam) is filled into 500 ml plastic bottles and is moistened to 50% water holding capacity. The soil is incubated at 20° C. for two weeks prior to the experiments to activate the microbial biomass. 1 ml test solution, containing the components of the mixture in the appropriate concentration (usually from 0.1 to 3.13% (w/w) of fertilized NH4—N), and 10 mg nitrogen in the form of ammoniumsulfate-N(NH4—N) is added to the soil and everything mixed well. Unfertilized controls received 1 ml pure water. Bottles are capped but loosely to allow air exchange. The bottles are then incubated at 20° C. for 0 and 28 days in Experiment 1, and for 0 and 42 days in Experiment 2.
(§3) For analysis, 300 ml of a 1% K2SO4-solution is added to the bottle containing the soil and shaken for 2 hours in a horizontal shaker at 150 rpm. Then the whole solution is filtered through a filter (Macherey-Nagel Filter MN 807 ¼). Ammonium and nitrate content is then analyzed in the filtrate using an autoanalyzer. Ammonium was quantified via an indophenol blue dye at 660 nm, and nitrate via an azo dye at 540 nm.
(§4) The nitrification inhibition is expressed as % of NH4—N recovery from fertilized NH4—N(100%) after subtraction of unfertilized control soil, and as % inhibition of NO3—N formation (% reduction of NO3^− production) according to the formula:
(§5) In every experiment three tests (n=3) regarding the inhibition of nitrification were performed in each case.
(§6) The results were compared with the results calculated by Colby (Colby, S.R., Calculating synergistic and antagonistic responses of herbicide combinations, Weeds, 15, pp. 20-22, 1967) for an additive effect.
(§7) Colby's formula:E=x+y−x·y/100 • E=expected efficacy, expressed in % of the untreated control, when using the mixture comprising the components (i) and (ii) at concentrations a and b; • x=efficacy, expressed in % of the untreated control, when using component (i) at the concentration a; • y=efficacy, expressed in % of the untreated control, when using component (ii) at the concentration b.

[2] = test system: nitrification in soil Limburgerhof; experiment: Inhibition of nitrification in soil, Experiment 1 (incubation 28 days)
Protocol: as §1, §2, §3, §4, §5, §6, §7

[3] = test system: nitrification in soil Limburgerhof; experiment: Inhibition of nitrification in soil, mixtures with R^1 is CH2CH3, tested analogously (50 g soil, 4 replicates, 28 and 42 days); settings: R^1 is CH2CH3 series
Protocol: as §2, §3
The nitrification inhibition is expressed as % of NH4—N recovery from fertilized NH4—N(100%) after subtraction of unfertilized control soil, and as % inhibition of NO3—N formation (% reduction of NO3^− production) according to the formula: […]
as §6, §7
The following mixtures were tested analogously using 50 g soil Limburgerhof as defined above and ammonium sulfate as fertilizer in an amount N of 10 mg NH4N/100 g soil (number of replicates: 4)

[4] = (i) 0.1, (ii) 0 wt.-% relative to NH4—N
[5] = (i) 0.3, (ii) 0 wt.-% relative to NH4—N
[6] = (i) 0.9, (ii) 0 wt.-% relative to NH4—N
[7] = (i) 2.7, (ii) 0 wt.-% relative to NH4—N
[8] = (i) 0.2, (ii) 0 wt.-% relative to NH4—N
[9] = (i) 0.4, (ii) 0 wt.-% relative to NH4—N
[10] = (i) 0.8, (ii) 0 wt.-% relative to NH4—N
[11] = (i) 0, (ii) 0.2 wt.-% relative to NH4—N
[12] = (i) 0, (ii) 0.5 wt.-% relative to NH4—N
[13] = (i) 0, (ii) 1.25 wt.-% relative to NH4—N
[14] = (i) 0, (ii) 3.13 wt.-% relative to NH4—N
[15] = (i) 0, (ii) 1 wt.-% relative to NH4—N
[16] = (i) 0, (ii) 2 wt.-% relative to NH4—N

## COc1cc(C)n[nH]1 [Component (i)]
[1]; [4]
  % Inhibition of NO3^− production after 42 days, Measured: 2.5%
[1]; [5]
  % Inhibition of NO3^− production after 42 days, Measured: 12.2%
  % NH4—N recovery from fertilized NH4—N after 42 days, Measured: 1.9%
[1]; [6]
  % Inhibition of NO3^− production after 42 days, Measured: 42.1%
  % NH4—N recovery from fertilized NH4—N after 42 days, Measured: 29.6%
[1]; [7]
  % Inhibition of NO3^− production after 42 days, Measured: 83.8%
  % NH4—N recovery from fertilized NH4—N after 42 days, Measured: 64.4%
[2]; [4]
  % Inhibition of NO3^− production after 28 days, Measured: 0.5%
  % NH4—N recovery from fertilized NH4—N after 28 days, Measured: 0.7%
[2]; [8]
  % Inhibition of NO3^− production after 28 days, Measured: 25.8%
  % NH4—N recovery from fertilized NH4—N after 28 days, Measured: 17.2%
[2]; [9]
  % Inhibition of NO3^− production after 28 days, Measured: 44.2%
  % NH4—N recovery from fertilized NH4—N after 28 days, Measured: 41.8%
[2]; [10]
  % Inhibition of NO3^− production after 28 days, Measured: 67.6%
  % NH4—N recovery from fertilized NH4—N after 28 days, Measured: 62.6%

## N#CN=C(N)N [Component (ii), Dicyandiamide]
[1]; [11]
  % Inhibition of NO3^− production after 42 days, Measured: 9.2%
  % NH4—N recovery from fertilized NH4—N after 42 days, Measured: 0%
[1]; [12]
  % Inhibition of NO3^− production after 42 days, Measured: 10.4%
[1]; [13]
  % Inhibition of NO3^− production after 42 days, Measured: 10.0%
[1]; [14]
  % Inhibition of NO3^− production after 42 days, Measured: 15.4%
[2]; (i) 0, (ii) 0.25 wt.-% relative to NH4—N
  % Inhibition of NO3^− production after 28 days, Measured: −1.2%
[2]; [12]
  % Inhibition of NO3^− production after 28 days, Measured: 7.7%
[2]; [15]
  % Inhibition of NO3^− production after 28 days, Measured: 3.5%
  % NH4—N recovery from fertilized NH4—N after 28 days, Measured: 0.8%
[2]; [16]
  % Inhibition of NO3^− production after 28 days, Measured: 16.3%
  % NH4—N recovery from fertilized NH4—N after 28 days, Measured: 9.0%
[3]; [13]
  % Inhibition of NO3^− production after 28 days, Measured: 4.3%
  % Inhibition of NO3^− production after 42 days, Measured: 4.0%
  % NH4—N recovery from fertilized NH4—N after 28 days, Measured: 0.0%
  % NH4—N recovery from fertilized NH4—N after 42 days, Measured: 0.0%
[3]; [14]
  % Inhibition of NO3^− production after 28 days, Measured: 15.7%
  % Inhibition of NO3^− production after 42 days, Measured: 4.0%
  % NH4—N recovery from fertilized NH4—N after 28 days, Measured: 0.0%
  % NH4—N recovery from fertilized NH4—N after 42 days, Measured: 0.0%
